Data published in patent publication US9221808B2, “Pyridylthiazole-based ureas as inhibitors of Rho associated protein kinase (ROCK) and methods of use” (H. Lee Moffitt Cancer Center and Research Institute, Inc., priority 2010, dated 2015).
Structures can show the parent of a compound that is named as a salt. Where two headings read alike, the source gives them in different places.

Tests used:
Aurora-A = Aurora-A (Homo sapiens (Human), UniProt O14965); test: preliminary kinase-selectivity profile, Aurora-A; assay type: biochemical
ROCK2 [1] = molecular target: T1, ROCK2 (Homo sapiens (Human), UniProt O75116); conditions: reported by MLSCN, assay ID 644; read-out: ROCK2 enzymatic activity IC50; cited from earlier work
ROCK1 = ROCK1 (Homo sapiens (Human), UniProt Q13464); test: FRET-based Z'-Lyte kinase assay, ROCK1; assay type: biochemical;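 further: kinase phosphorylates a coumarin/fluorescein-labelled FRET peptide, then a protease cleaves unphosphorylated peptide, progress read as donor to acceptor emission ratio after 400 nm excitation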
Description: (§1) A) In the primary reaction, the Rho kinases phosphorylates a single serine or threonine residue in a synthetic FRET-peptide. This FRET-peptide is doubly labeled with a fluorophore at each end—coumarin (the FRET donor) on one end and fluorescein (the FRET acceptor) on the other—and also contains a single phosphorylation site which either overlaps with or lies adjacent to the proteolytic site. B) In the secondary reaction, a site-specific protease recognizes and cleaves the non-phosphorylated FRET-peptide. Cleavage disrupts FRET between the donor and acceptor fluorophores on the FRET-peptide, whereas uncleaved, phosphorylated FRET-peptides maintain FRET. Kinases phosphorylated FRET-peptides cannot be cleaved by the protease. […] Cleavage disrupts FRET and causes a decrease in the fluorescein fluorescence signal and a strong increase in the coumarin fluorescence signal. Therefore the extension of the phosphprylation can be measured by FRET-signal remaining the protease reaction. The assay uses a ratiometric method, which calculates the ratio of donor emission to acceptor emission (the emission ratio) after excitation of the donor fluorophore at 400 nm, to quantitate reaction progress.
(§2) All compounds were systematically screened against ROCK1 and ROCK2.

ROCK2 [2] = molecular target: T1, ROCK2; test: FRET-based Z'-Lyte kinase assay, ROCK2; assay type: biochemical;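 further: kinase phosphorylates a coumarin/fluorescein FRET peptide, then a protease cleaves unphosphorylated peptide, read as donor/acceptor emission ratio after 400 nm excitation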
Description: as §1, §2

[3] = system: phosphorylation of MYPT1, a substrate for ROCK kinase, in H1299 cells; test: phosphorylation levels of MYPT1 in intact H1299 cells (western blot); assay type: cell-based, human; conditions: for IC50: H1299 human lung cancer cells, read-out: IC50 for inhibition of phosphorylation of MYPT1
breast tumors = test: transgenic mouse breast cancer model (rat Her2 under MMTV promoter); assay type: in vivo; conditions: 200 mpk/day, once a day for 14 days; last day of treatment relative to day of initiation
Experimental: The anti tumor activity of 1bo was determined in vivo in a transgenic mouse breast cancer model. In this model, the mice harbor the rat Her2 gene under the control of the MMTV promoter. These mice therefore spontaneously develop tumors in their mammary tissues. Breast tumors were measured beginning at the time of tumor onset and treatment (once a day for 14 days) with vehicle (20% HPCD) or 1bo (200 mpk/day) began when tumor volumes reached about 200 to 2,300 mm^3. A wide range of tumor volumes was used to ensure that responses were not volume dependent. […] The percent change was calculated from the tumor volume on the last day of treatment relative to the volume on the day of initiation of treatment. […] Thus, on average the breast tumors from 1bo treated mice were 6.6 fold smaller compared to those tumors from mice treated with the vehicle control.

Chain of ROCK1 (Q13464 whole entry, species assumed): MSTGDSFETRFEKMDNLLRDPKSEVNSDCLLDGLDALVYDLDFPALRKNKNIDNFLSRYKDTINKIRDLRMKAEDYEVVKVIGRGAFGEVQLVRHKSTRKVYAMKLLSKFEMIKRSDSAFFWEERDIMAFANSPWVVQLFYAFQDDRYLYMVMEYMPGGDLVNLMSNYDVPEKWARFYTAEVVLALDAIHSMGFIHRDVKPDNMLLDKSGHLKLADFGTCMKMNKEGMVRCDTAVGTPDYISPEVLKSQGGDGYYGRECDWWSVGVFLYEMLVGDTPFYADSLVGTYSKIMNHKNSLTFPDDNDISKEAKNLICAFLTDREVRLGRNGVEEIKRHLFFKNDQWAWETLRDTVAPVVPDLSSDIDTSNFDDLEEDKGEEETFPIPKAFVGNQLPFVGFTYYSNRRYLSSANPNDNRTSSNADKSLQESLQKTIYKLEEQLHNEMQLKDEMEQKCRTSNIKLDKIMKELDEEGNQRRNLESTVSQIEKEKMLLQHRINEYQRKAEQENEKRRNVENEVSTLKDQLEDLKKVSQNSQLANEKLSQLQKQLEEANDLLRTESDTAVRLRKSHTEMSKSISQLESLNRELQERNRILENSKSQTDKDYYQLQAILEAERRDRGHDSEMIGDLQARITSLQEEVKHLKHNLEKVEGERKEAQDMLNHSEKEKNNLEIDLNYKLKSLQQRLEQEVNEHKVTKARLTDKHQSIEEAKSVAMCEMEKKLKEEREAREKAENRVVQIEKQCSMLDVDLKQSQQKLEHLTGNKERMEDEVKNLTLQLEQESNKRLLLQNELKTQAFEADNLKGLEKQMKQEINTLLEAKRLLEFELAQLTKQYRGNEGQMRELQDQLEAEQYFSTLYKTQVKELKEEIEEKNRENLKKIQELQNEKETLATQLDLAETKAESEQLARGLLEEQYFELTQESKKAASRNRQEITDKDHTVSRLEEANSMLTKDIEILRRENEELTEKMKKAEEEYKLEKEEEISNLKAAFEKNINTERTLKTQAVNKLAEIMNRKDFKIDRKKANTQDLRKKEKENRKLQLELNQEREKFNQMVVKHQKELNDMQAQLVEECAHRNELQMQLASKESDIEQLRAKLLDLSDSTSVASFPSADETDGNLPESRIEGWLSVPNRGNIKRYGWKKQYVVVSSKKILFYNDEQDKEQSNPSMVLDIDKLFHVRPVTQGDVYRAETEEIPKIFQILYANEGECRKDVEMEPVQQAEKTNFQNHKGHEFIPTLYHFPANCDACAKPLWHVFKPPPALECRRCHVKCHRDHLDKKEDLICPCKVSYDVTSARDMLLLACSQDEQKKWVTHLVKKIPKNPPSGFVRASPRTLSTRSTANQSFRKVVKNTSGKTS
T1 sequence (O75116 whole entry, species assumed): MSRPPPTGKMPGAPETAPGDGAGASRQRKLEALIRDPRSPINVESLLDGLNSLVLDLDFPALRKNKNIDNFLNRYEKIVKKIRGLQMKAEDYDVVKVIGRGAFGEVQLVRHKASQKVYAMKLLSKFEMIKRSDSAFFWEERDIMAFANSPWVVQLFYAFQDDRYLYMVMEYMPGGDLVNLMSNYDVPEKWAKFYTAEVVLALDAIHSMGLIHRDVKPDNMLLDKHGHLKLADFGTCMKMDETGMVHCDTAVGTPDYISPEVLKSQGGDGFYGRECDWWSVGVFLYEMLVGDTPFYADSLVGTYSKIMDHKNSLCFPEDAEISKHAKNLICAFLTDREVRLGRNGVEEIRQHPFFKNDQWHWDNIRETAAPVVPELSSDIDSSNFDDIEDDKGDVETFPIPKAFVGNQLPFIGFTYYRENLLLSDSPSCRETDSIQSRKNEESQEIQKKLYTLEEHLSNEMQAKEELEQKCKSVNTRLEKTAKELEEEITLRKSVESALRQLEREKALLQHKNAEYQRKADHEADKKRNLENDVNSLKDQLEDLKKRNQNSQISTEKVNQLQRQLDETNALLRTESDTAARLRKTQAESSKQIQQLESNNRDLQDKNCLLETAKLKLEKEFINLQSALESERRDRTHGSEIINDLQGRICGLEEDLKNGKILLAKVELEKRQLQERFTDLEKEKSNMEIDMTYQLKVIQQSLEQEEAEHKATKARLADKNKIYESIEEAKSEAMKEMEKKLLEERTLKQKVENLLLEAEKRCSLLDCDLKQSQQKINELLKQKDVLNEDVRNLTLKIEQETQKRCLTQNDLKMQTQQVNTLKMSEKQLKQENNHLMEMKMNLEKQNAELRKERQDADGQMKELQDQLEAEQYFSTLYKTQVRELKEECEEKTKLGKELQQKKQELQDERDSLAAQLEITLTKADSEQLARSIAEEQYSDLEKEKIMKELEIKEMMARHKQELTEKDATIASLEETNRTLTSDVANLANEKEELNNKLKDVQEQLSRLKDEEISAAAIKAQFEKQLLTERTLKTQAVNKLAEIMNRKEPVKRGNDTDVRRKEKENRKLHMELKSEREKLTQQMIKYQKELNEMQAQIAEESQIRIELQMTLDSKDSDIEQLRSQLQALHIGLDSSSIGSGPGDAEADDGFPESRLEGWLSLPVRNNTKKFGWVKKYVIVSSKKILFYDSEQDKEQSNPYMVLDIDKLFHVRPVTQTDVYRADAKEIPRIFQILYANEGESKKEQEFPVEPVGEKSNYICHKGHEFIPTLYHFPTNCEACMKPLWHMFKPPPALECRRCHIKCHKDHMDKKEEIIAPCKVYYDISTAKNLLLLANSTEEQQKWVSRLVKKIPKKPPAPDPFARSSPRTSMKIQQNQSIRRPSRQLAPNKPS
Chain of Aurora-A (O14965 whole entry): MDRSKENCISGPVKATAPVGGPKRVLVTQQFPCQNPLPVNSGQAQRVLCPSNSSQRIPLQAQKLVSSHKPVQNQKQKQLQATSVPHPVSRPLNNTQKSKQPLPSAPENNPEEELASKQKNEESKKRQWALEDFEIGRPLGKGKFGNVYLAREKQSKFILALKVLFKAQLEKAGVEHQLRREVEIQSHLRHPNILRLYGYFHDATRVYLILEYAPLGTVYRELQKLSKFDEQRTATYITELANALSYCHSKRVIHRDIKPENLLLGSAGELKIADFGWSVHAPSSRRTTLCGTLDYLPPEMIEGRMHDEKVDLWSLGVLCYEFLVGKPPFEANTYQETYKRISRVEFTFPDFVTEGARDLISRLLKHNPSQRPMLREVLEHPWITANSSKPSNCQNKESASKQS

SMILES | IC50 (ROCK1; read-out: IC50 ± SD (μM) ROCK1) [µM] | IC50 (ROCK2 [2]; read-out: IC50 ± SD (μM) ROCK2) [µM] | also measured
O=C(Nc1nc(-c2ccncc2)cs1)C1COc2ccccc2O1 (stereo not shown) [CID5056270, reference compound] |  |  | IC50 (Aurora-A): > 100000 nM; IC50 (ROCK2 [1]): < 3 nM; IC50 (ROCK1; read-out: ROCK1 IC50): 0.076 µM; IC50 (ROCK2 [2]; read-out: ROCK2 IC50): 0.04 µM
COc1ccc(CNC(=O)Nc2nc(-c3ccncc3)cs2)cc1 [Compound 1am, 1-(4-Methoxybenzyl)-3-(4-(pyridin-4-yl)thiazol-2-yl)urea] |  |  | effect on phosphorylation of MYPT1 ([3]; H1299 cells, 10 μM): did not affect; inhibition at 50 µM (ROCK1; read-out: ROCK1 % inhibition @ 50 μM, 50 μM compound): 9.12%
O=C(NCc1cccc(O)c1)Nc1nc(-c2ccncc2)cs1 [Compound 1bo, 1-(3-Hydroxybenzyl)-3-(4-(pyridin-4-yl)thiazol-2-yl)urea] |  |  | average percent change in tumor volume (breast tumors): 8.9%; IC50 [3]: 500 nM; IC50 (ROCK1; read-out: ROCK1 IC50): 0.008 µM
O=C(NCc1cccc(O)c1)Nc1nc(-c2ccncc2)cs1 [Compound 1bo-Mes, 1-(3-hydroxybenzyl)-3-(4-(pyridin-4-yl)thiazol-2-yl)urea methanesulfonate] |  |  | IC50 ([3]; NCI-H1299): 500 nM; IC50 (ROCK1; methanesulfonate, read-out: IC50 ± SD (μM) ROCK1): 0.013 µM; IC50 (ROCK1; read-out: ROCK1 IC50): 0.012 µM
O=C(NCc1cccc(OC(F)F)c1)Nc1nc(-c2ccncc2)cs1 [Compound 1bs, 1-(3-(Difluoromethoxy)benzyl)-3-(4-(pyridin-4-yl)thiazol-2-yl)urea] | 0.92 ± 0.1 | 0.35 ± 0.08 | 
Cc1ccccc1CNC(=O)Nc1nc(-c2ccncc2)cs1 [Compound 1bt, 1-(2-Methylbenzyl)-3-(4-(pyridin-4-yl)thiazol-2-yl)urea] | 0.15 ± 0.03 | 0.12 ± 0.02 | 
CC(C)Oc1cccc(CNC(=O)Nc2nc(-c3ccncc3)cs2)c1 [Compound 1bu, 1-(3-Isopropoxybenzyl)-3-(4-(pyridin-4-yl)thiazol-2-yl)urea] | 13 ± 1.38 | 3.44 ± 0.87 | 
NC(=O)[C@H](NC(=O)Nc1nc(-c2ccncc2)cs1)c1ccccc1 [Compound 1bv, (R)-2-Phenyl-2-(3-(4-(pyridin-4-yl)thiazol-2-yl)ureido)acetamide] | 3.7 ± 0.5 | 2.1 ± 0.36 | 
CCOc1cccc(CNC(=O)Nc2nc(-c3ccncc3)cs2)c1 [Compound 1bw, 1-(3-ethoxybenzyl)-3-(4-(pyridin-4-yl)thiazol-2-yl)urea] | 2.14 ± 0.62 | 0.29 ± 0.17 | 
CCCOc1cccc(CNC(=O)Nc2nc(-c3ccncc3)cs2)c1 [Compound 1bx, 1-(3-propoxybenzyl)-3-(4-(pyridin-4-yl)thiazol-2-yl)urea] | 3.36 ± 1 | 0.68 ± 0.43 | 
COc1ccc([C@@H](C)NC(=O)Nc2nc(-c3ccncc3)cs2)cc1 [Compound 1bz, (R)-1-(1-(4-methoxyphenyl)ethyl)-3-(4-(pyridin-4-yl)thiazol-2-yl)urea] | > 50 | 11.9 ± 4.69 | 
CC(NC(=O)Nc1nc(-c2ccncc2)cs1)c1cccc(F)c1 (stereo not shown) [Compound 1ca, 1-(1-(3-fluorophenyl)ethyl)-3-(4-(pyridin-4-yl)thiazol-2-yl)urea] | 0.43 ± 0.13 | 0.28 ± 0.13 | 
C[C@@H](NC(=O)Nc1nc(-c2ccncc2)cs1)c1cccc(Cl)c1 [Compound 1cb, (R)-1-(1-(3-chlorophenyl)ethyl)-3-(4-(pyridin-4-yl)thiazol-2-yl)urea] | 0.55 ± 0.32 | 0.07 ± 0.02 | 
C[C@@H](NC(=O)Nc1nc(-c2ccncc2)cs1)c1cccc(F)c1 [Compound 1cc, (R)-1-(1-(3-fluorophenyl)ethyl)-3-(4-(pyridin-4-yl)thiazol-2-yl)urea] | 0.11 ± 0.01 | 0.03 ± 0.01 | fold less potent than 1ah (ROCK1; comparator 1ah): 3 fold
O=C(NCc1cc(F)cc(F)c1)Nc1nc(-c2ccncc2)cs1 [Compound 1cd, 1-(3,5-difluorobenzyl)-3-(4-(pyridin-4-yl)thiazol-2-yl)urea] | 4.07 ± 2.76 | 0.96 ± 0.56 | 
C[C@H](NC(=O)Nc1nc(-c2ccncc2)cs1)c1cccc(F)c1 [Compound 1cf, (S)-1-(1-(3-fluorophenyl)ethyl)-3-(4-(pyridin-4-yl)thiazol-2-yl)urea] | 30 ± 10 | 11 ± 6.74 | 

SMILES | IC50 (ROCK1; read-out: IC50 ± SD (μM) ROCK1) [µM] | IC50 (ROCK2 [2]; read-out: IC50 ± SD (μM) ROCK2) [µM] | also measured
CS(=O)(=O)Nc1cccc(CNC(=O)Nc2nc(-c3ccncc3)cs2)c1 [Compound 1ch, N-(3-β3-(4-(pyridin-4-yl)thiazol-2-yl)ureido)methyl)phenyl)-methanesulfonamide hydrochloride] | 0.56 ± 0.1 | 0.1 ± 0.03 | 
CC(=O)Nc1cccc(CNC(=O)Nc2nc(-c3ccncc3)cs2)c1 [Compound 1ci, N-(3-((3-(4-(pyridin-4-yl)thiazol-2yl)ureido)methyl)phenyl)acetamide hydrochloride] | 1.25 ± 0.21 | 0.13 ± 0.02 | 
NC(=O)Nc1cccc(CNC(=O)Nc2nc(-c3ccncc3)cs2)c1 [Compound 1cj, hydrochloride] | 1.15 ± 0.39 | 0.18 ± 0.04 | 
COc1ccc(CNC(=O)Nc2nc(-c3ccncc3)cs2)cc1OC [Compound 1ck, 1-(3,4-Dimethoxybenzyl)-3-(4-(pyridin-4-yl)thiazol-2-yl)urea] | 45.1 ± 5.57 | 25 ± 1.01 | 
CC(C)(NC(=O)Nc1nc(-c2ccncc2)cs1)c1ccccc1 [Compound 1cl, 1-(2-Phenylpropan-2-yl)-3-(4-(pyridin-4-yl)thiazol-2-yl)urea] | 0.19 ± 0.04 | 0.07 ± 0.02 | 
COc1cccc(CN(C)C(=O)Nc2nc(-c3ccncc3)cs2)c1 [Compound 1cm, 1-(3-Methoxybenzyl)-1-methyl-3-(4-(pyridin-4-yl)thiazol-2-yl)urea] | 0.04 ± 0.01 | 0.015 ± 0.004 | 
C[C@H](c1ccccc1)N(C)C(=O)Nc1nc(-c2ccncc2)cs1 [Compound 1cn, (R)-1-Methyl-1-(1-phenylethyl)-3-(4-(pyridin-4-yl)thiazol-2-yl)urea] | 0.12 ± 0.04 | 0.047 ± 0.018 | 
C[C@@H](c1ccccc1)N(C)C(=O)Nc1nc(-c2ccncc2)cs1 [Compound 1co, (S)-1-Methyl-1-(1-phenylethyl)-3-(4-(pyridin-4-yl)thiazol-2-yl)urea] | 6.44 ± 1.67 | 2.67 ± 0.89 | 
NC(=O)[C@@H](NC(=O)Nc1nc(-c2ccncc2)cs1)c1ccccc1 [Compound 1cp, (S)-2-Phenyl-2-(3-(4-(pyridin-4-yl)thiazol-2-yl)ureido)acetamide] | 0.08 ± 0.01 | 0.04 ± 0.016 | fold loss of potency compared to 1at (ROCK1; comparator 1at): 11 fold
O=C(Nc1nc(-c2ccncc2)cs1)N1CCc2ccccc2C1 [Compound 1cq, N-(4-(Pyridin-4-yl)thiazol-2-yl)-3,4-dihydroisoquinoline-2(1H)-carboxamide] | 3.87 ± 0.351 | 1.95 ± 0.389 | 
O=C(Nc1nc(-c2ccncc2)cs1)N[C@@H]1CCc2ccccc21 [Compound 1ct, (R)-1-(2,3-Dihydro-1H-inden-1-yl)-3-(4-(pyridin-4-yl)thiazol-2-yl)urea] | 28.2 ± 1.84 | 52.5 ± 1.75 | 
O=C(Nc1nc(-c2ccncc2)cs1)N[C@H]1CCc2ccccc21 [Compound 1cu, (S)-1-(2,3-Dihydro-1H-inden-1-yl)-3-(4-(pyridin-4-yl)thiazol-2-yl)urea] | 3.21 ± 0.9 | 1.83 ± 0.56 | 
O=C(Nc1nc(-c2ccncc2)cs1)N[C@@H]1CCCc2ccccc21 [Compound 1cv, (R)-1-(4-(Pyridin-4-yl)thiazol-2-yl)-3-(1,2,3,4-tetrahydronaphthalen-1-yl)urea] | 6.99 ± 1.61 | 3.82 ± 1.53 | 
O=C(Nc1nc(-c2ccncc2)cs1)N[C@H]1CCCc2ccccc21 [Compound 1cw] | 6.25 ± 1.36 | 3.35 ± 0.87 | 
O=C(Nc1nc(-c2ccncc2)cs1)Nc1ccccc1Cl [Compound 6e, 1-(2-Chlorophenyl)-3-(4-(pyridin-4-yl)thiazol-2-yl)urea] | 2.49 ± 1.07 | 3.75 ± 0.39 | 
O=C(Nc1nc(-c2ccncc2)cs1)N1CCN(c2ccncc2)CC1 [Compound 12a, 4-(Pyridin-4-yl)-N-(4-(pyridin-4-yl)thiazol-2-yl)piperazine-1-carboxamide] | 16.9 ± 2.11 | 8.35 ± 2.36 | 
